Source: patent publication US9611223B2, “3-aryl-5-substituted-isoquinolin-1-one compounds and their therapeutic use” (INSTITUTE OF CANCER RESEARCH: ROYAL CANCER HOSPITAL (THE), priority 2013, dated 2017)
Where “and” joins values, the source holds several entries; their conditions need not be identical. Equal values may be shown once. Read-outs that look alike come from different tables or passages of the source.

Tests used:
TNKS1 = target: T1, TNKS1 (Homo sapiens, UniProt O95271, M1266I); assay: TNKS1/PARP Biochemical Assay
T1 construct: expresses the active PARP domain of TNKS1 as a polyhistidine tagged protein; made in house; host or cells: E. coli Rosetta2(DE3)
T1 sequence (O95271 1112-1317 M1266I): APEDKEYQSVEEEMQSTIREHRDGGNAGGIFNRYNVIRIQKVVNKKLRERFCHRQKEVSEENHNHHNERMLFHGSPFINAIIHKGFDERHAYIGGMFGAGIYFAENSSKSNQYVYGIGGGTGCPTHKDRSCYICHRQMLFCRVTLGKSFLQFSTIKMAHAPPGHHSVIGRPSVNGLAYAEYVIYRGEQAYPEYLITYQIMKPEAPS
Protocol: TNKS1/PARP Biochemical Assay
Tankyrase activity was assayed using a 96-well format HT Universal Chemiluminescent PARP Assay Kit (Trevigen, Inc, cat. no. 4676-096-K) according to the manufacturer's instructions. In short, tankyrase/PARP activity is quantified by the incorporation of biotinylated nicotinamide adenine dinucleotide (biotin-NAD^+) onto the immobilised pseudo substrate, Histone. The extent of poly(Biotin-ADP)ribosylation (PARylation) in the presence of increasing dose of inhibitor is then quantified by binding of streptavidin conjugated horse radish peroxidase (strep-HRP) followed by chemiluminescent detection.
Prior to assay initiation, inhibitor stocks were prepared in aqueous DMSO (10% (v/v)) from 5 millimolar (mM) stock in 100% DMSO (Sigma Aldrich, cat. no. 265855) as 10× concentrations. For the primary assay (i.e., single dose at 1 micromolar (μM) final concentration) this corresponded to 10 μM in 10% DMSO. For IC50 determination, this corresponded to 100 μM, 30 μM, 10 μM, 3.0 μM, 1.0 μM, 0.30 μM, 0.10 μM and 0 μM in 10% DMSO for final concentrations of 10 μM, 3.0 μM, 1.0 μM, 0.30 μM, 0.10 μM, 0.030 μM, 0.010 μM, and 0 μM with 1% (v/v) final DMSO. The assay was initiated by the addition of 10× inhibitor (5 microliters (μL)) or 10% aqueous DMSO (5 μL) to triplicate wells. Twenty microliters of diluted TNKS1 protein (200 nanomolar (nM) final conc.) in PARP buffer (Trevigen, Inc, cat. no. 4671-096-02) was added to each histone coated well, which was previously hydrated with PARP buffer. Triplicate wells with 1% DMSO/buffer alone (no enzyme) were also added as a measure of assay ‘noise’. Positive control for PARP inhibition included the addition of 4-amino-1,8-naphthalimide (Sigma Aldrich, cat. no A0966) in corresponding doses.
The mixture was incubated for 10 minutes at room temperature and the PARylation reaction initiated by the addition of PARP cocktail (25 μL, Trevigen, Inc) containing biotin-NAD^+ (Trevigen, Inc, cat. no. 4670-500-01), activated DNA (Trevigen, Inc, cat. no. 4671-096-06) and PARP buffer. The reaction was incubated for 1.5 hours (for TNKS1) or 1 hour (for PARP1) at room temperature. The reaction mixture was then removed by aspiration and the wells washed (3×200 μL) with phosphate buffered saline containing Triton X-100 (0.1% (v/v), Sigma Aldrich cat. no. T8787). The wells were then washed (3×200 μL) with phosphate buffered saline and then incubated with strep-HRP (50 μL, Trevigen, Inc, cat. no. 4800-30-06) in strep-diluent (1:500 dilution, Trevigen Inc, cat. no. 4671-096-04) for 1 hour at room temperature. The Strep-HRP mixture was then aspirated and the wells washed (3×200 μL) with phosphate buffered saline containing Triton X-100 (0.1% (v/v)) followed by phosphate buffered saline (3×200 μL) and then incubated with PeroxyGlow™ reagent (100 μL, Trevigen, Inc, cat. nos. 4675-096-01, 4675-096-02, room temperature, mixed 1:1).
The amount of light emitted as a result of the peroxidase-chemiluminescent reagent reaction was in proportion to the extent of poly(Biotin-ADP)ribosylation and was immediately measured with a Victor^2 plate reader (Perkin Elmer, luminescence detection assay, luminescent units described as ‘Counts Per Second’ (CPS)). The data were normalised to the DMSO control after subtraction of ‘noise’ and was expressed as % PARP activity as a function of inhibitor dose. Inhibition was expressed as 100%−(% PARP activity). Dose response curves used to determine IC50 values were Log transformed and analysed by non-linear regression analysis (variable slope) using Prism (GraphPad Software, Inc) and were presented as IC50 with 95% confidence interval to determine relative potency.
Tankyrase1 (pNIC-Bsa4-TNKS1^PARP) expression construct was obtained from the Structural Genomics Consortium (SGC) and expresses the active PARP domain of TNKS1 as a polyhistidine tagged protein. […]

COLO320DM cells = assay: Tumour Cell Inhibition Assay (COLO320DM cells); assay type: cell-based; settings: Homo sapiens, COLO 320DM, 120 h, five day exposure
Protocol: Tumour Cell Inhibition in Colorectal Tumour Cells
In order to determine the efficacy of acute dosing of putative TNKS inhibitors, five day exposure cell viability assays were carried out. This included the sparse seeding of cells in a 96-well plate followed by continuous dosing of cells over a five day period.
Appropriate cell lines (HT55, COLO320DM and SW620) were seeded at 500 cells/well in a 96-well plate in MEM (HT55), RPMI (COLO320DM) or DMEM (SW620) supplemented with FBS. After overnight incubation, cells were treated with the appropriate putative TNKS inhibitor in 6 or 10 concentrations ranging from 0 μM to 10 μM at 0.2% final DMSO concentration in appropriate media supplemented with 10% or 0.5% FBS. Dosages were carried out in triplicate. Termination of the assay and measurement of cell viability was achieved by the use of Cell Titre Glo reagent and luminescence measurement on an appropriate plate reader.
Dose response curves used to determine SF50 values were Log transformed and analysed by non-linear regression analysis (variable slope) using Prism (GraphPad Software, Inc).

[1] = read-out: cell inhibitory SF50 (COLO320DM)

Row | SMILES | IC50 (TNKS1) | IC50 (COLO320DM cells; [1]) [nM] | IC50 (COLO320DM cells; replicate, read-out: cell inhibitory SF50 (COLO320DM), replicate) [nM]
1 | COCc1nccn1Cc1ccc(-c2cc3c(C#N)cccc3c(=O)[nH]2)cc1 [IQ-017] | < 50 nM | – | –
2 | COCc1nccn1Cc1ccc(-c2cc3c(CN)cccc3c(=O)[nH]2)cc1 [IQ-023, 5-Aminomethyl-3-[4-(2-methoxymethyl-imidazol-1-ylmethyl)-phenyl]-2H-isoquinolin-1-one] | < 50 nM | – | –
3 | COCc1ccnn1Cc1ccc(-c2cc3c(C#N)cccc3c(=O)[nH]2)cc1 [IQ-031] | < 100 nM | – | –
4 | N#Cc1cccc2c(=O)[nH]c(-c3ccc(CN)cc3)cc12 [IQ-043] | < 100 nM | – | –
5 | Cc1nnc(N2CCCN(c3ccc(-c4cc5c(C#N)cccc5c(=O)[nH]4)cc3)CC2)o1 [IQ-059, 3-{4-[4-(5-Methyl-[1,3,4]oxadiazol-2-yl)-[1,4]diazepan-1-yl]-phenyl}-1-oxo-1,2-dihydro-isoquinoline-5-carbonitrile] | < 50 nM | < 5000 | –
6 | CN(C)Cc1nccn1Cc1ccc(-c2cc3c(C#N)cccc3c(=O)[nH]2)cc1 [IQ-016] | < 50 nM | < 5000 | –
7 | COCCN(CCOC)C(=O)c1ccc(-c2cc3c(C#N)cccc3c(=O)[nH]2)cc1 [IQ-008] | < 100 nM | – | –
8 | CC(c1ccc(-c2cc3c(C#N)cccc3c(=O)[nH]2)cc1)n1ccnc1CO (centres unmarked) [IQ-038] | < 50 nM | < 5000 | –
9 | Cc1nnc(N2CCN(Cc3ccc(-c4cc5c(C#N)cccc5c(=O)[nH]4)cc3)CC2)o1 [IQ-020] | < 50 nM | < 5000 | –
10 | Cc1nccn1Cc1ccc(-c2cc3c(C#N)cccc3c(=O)[nH]2)cc1 [IQ-013] | < 100 nM and < 50 nM and 18 nM | – | 1120
11 | Cc1nnc(N2CCN(Cc3ccc(-c4cc5c(C#N)cc(F)cc5c(=O)[nH]4)cc3)CC2)o1 [IQ-039] | < 50 nM | < 5000 | –
12 | Cc1nnc(N2CCN(c3ccc(-c4cc5c(C#N)cccc5c(=O)[nH]4)cc3)CC2)o1 [IQ-055, 3-{4-[4-(5-Methyl-[1,3,4]oxadiazol-2-yl)piperazin-1-yl]phenyl}-1-oxo-1,2-dihydroisoquinoline-5-carbonitrile] | < 50 nM | – | –
13 | COCc1ccn(Cc2ccc(-c3cc4c(C#N)cccc4c(=O)[nH]3)cc2)n1 [IQ-033] | < 50 nM | < 5000 | –
14 | CC(C)(C)OC(=O)N1CCN(Cc2ccc(-c3cc4c(C#N)cccc4c(=O)[nH]3)cc2)CC1 [IQ-046] | – | < 5000 | –
15 | CC(C)(C)OC(=O)N1CCN(c2ccc(-c3cc4c(C#N)cccc4c(=O)[nH]3)cn2)CC1 [IQ-051] | – | < 5000 | –
16 | Cc1nnc(N(C)Cc2ccc(-c3cc4c(C#N)cccc4c(=O)[nH]3)cc2)o1 [IQ-042] | < 50 nM | < 5000 | –
17 | COCc1nccn1C(C)c1ccc(-c2cc3c(C#N)cccc3c(=O)[nH]2)cc1 (centres unmarked) [IQ-028] | < 50 nM | < 5000 | –

Row | SMILES | IC50 (TNKS1) | IC50 (COLO320DM cells; [1]) [nM] | IC50 (COLO320DM cells; replicate, read-out: cell inhibitory SF50 (COLO320DM), replicate) [nM]
18 | Cc1nnc(N(C)C2CN(Cc3ccc(-c4cc5c(C#N)cccc5c(=O)[nH]4)cc3)C2)o1 [IQ-047] | < 50 nM | < 5000 | –
19 | CC(c1ccc(-c2cc3c(C#N)cccc3c(=O)[nH]2)cc1)N1CC(O)C1 (centres unmarked) [IQ-009, 3-{4-[1-(3-Hydroxy-azetidin-1-yl)-ethyl]-phenyl}-1-oxo-1,2-dihydro-isoquinoline-5-carbonitrile] | < 50 nM | – | –
20 | Cc1nnc(N2CCN(Cc3ccc(-c4cc5c(C#N)cccc5c(=O)[nH]4)cc3)C(C)C2)o1 (centres unmarked) [IQ-040] | < 100 nM | < 5000 | –
21 | Cc1nnc(N2CCN(C(C)c3ccc(-c4cc5c(C#N)cccc5c(=O)[nH]4)cc3)CC2)o1 (centres unmarked) [IQ-032] | < 50 nM | – | –
22 | CC(c1ccc(-c2cc3c(C#N)cccc3c(=O)[nH]2)cn1)n1ccnc1 (centres unmarked) [IQ-034] | < 50 nM | – | –
23 | CN(C(=O)c1ccc(-c2cc3c(C#N)cccc3c(=O)[nH]2)cc1)C1CCN(CC2CC2)CC1 [IQ-006] | < 50 nM | < 5000 | –
24 | CCc1nnc(N2CCN(Cc3ccc(-c4cc5c(C#N)cccc5c(=O)[nH]4)cc3)CC2)o1 [IQ-044] | < 50 nM | – | –
25 | CN(C)Cc1cccc2c(=O)[nH]c(-c3ccc(CN4CCN(C)CC4)cc3)cc12 [IQ-024, 5-Dimethylaminomethyl-3-[4-(4-methyl-piperazin-1-ylmethyl)-phenyl]-2H-isoquinolin-1-one] | – | < 5000 | –
26 | Cc1nnc(N2CCCN(Cc3ccc(-c4cc5c(C#N)cccc5c(=O)[nH]4)cc3)CC2)o1 [IQ-049] | < 50 nM | < 5000 | –
27 | N#Cc1cccc2c(=O)[nH]c(-c3ccc(Cn4ccnn4)cc3)cc12 [IQ-030] | < 50 nM | < 5000 | –
28 | Cc1nnc(N2CCN(Cc3ccc(-c4cc5c(C#N)cccc5c(=O)[nH]4)cc3)CC2(C)C)o1 [IQ-058] | < 100 nM | – | –
29 | CC(C)c1nnc(N2CCN(Cc3ccc(-c4cc5c(C#N)cccc5c(=O)[nH]4)cc3)CC2)o1 [IQ-019] | < 50 nM | – | –
30 | N#Cc1cccc2c(=O)[nH]c(-c3ccc(C(=O)N(CCO)CCO)cc3)cc12 [IQ-010, 4-(5-Cyano-1-oxo-1,2-dihydro-isoquinolin-3-yl)-N,N-bis-(2-hydroxy-ethyl)-benzamide] | < 50 nM | – | –
31 | CC(c1ccc(-c2cc3c(C#N)cccc3c(=O)[nH]2)cc1)n1ccnc1 (centres unmarked) [IQ-029] | < 50 nM | – | –
32 | Cc1nnc(N2CCN(Cc3ccc(-c4cc5c(CN)cccc5c(=O)[nH]4)cc3)CC2)o1 [IQ-022] | < 50 nM | – | –
33 | Cc1nnc(N2CCN(Cc3ccc(-c4cc5c(C#N)cccc5c(=O)[nH]4)cc3)C(C)(C)C2)o1 [IQ-057] | < 50 nM | < 5000 | –
34 | Cc1nnc(N2CCN(Cc3ccc(-c4cc5c(C#N)cccc5c(=O)[nH]4)cc3)CC2C)o1 (centres unmarked) [IQ-056] | < 50 nM | < 5000 | –
